# Values of other authors in patent US20020160058A1, “Antialopecia agent” (priority 1996, published 2002).
# Tested on: alopecia induced by adriamycin
# Conditions: reported
substance,measurement,setting,value
tocopherol,effect on alopecia induced by adriamycin,oral administration,preventive effect
same,effect on alopecia induced by the combined use of adriamycin with other anticancer agents,,no effect
